For five compounds, melting point results are on record in patent publication US20050065340A1, “Metabotropic glutamate receptor-5 modulators” (priority 2001, published 2005).

Counter-ions that a name gives are not always drawn.

As a reminder, the melting point is the temperature, or range, at which the solid turns liquid. Consider `COc1cc(-c2nc3ccccc3o2)ccc1-c1ccccn1` (as salt: hydrochloride) [Example 54, 2-(3-Methoxy-4-pyridin-2-ylphenyl)-1,3-benzoxazole hydrochloride salt], for which the melting point is 215 °C.

`N#CCc1ccc(-c2nc3ccccc3o2)cc1Br` [Example 1, [4-(1,3-Benzoxazol-2-yl)-2-bromnophenyl]acetonitrile] yielded a melting point of 190 to 191 °C.

Compound `N#CCc1ccc(-c2nc3ccccc3o2)cc1-c1cccc(C#N)c1` [Example 4, 5′-(1,3-Benzoxazol-2-yl)-2′-(cyanomethyl)-1,1′-biphenyl-3-carbonitrile] had a melting point of 175 to 176 °C.

Turning to `N#CCc1ccc(-c2nc3ccccc3o2)cc1[N+](=O)[O-]` [Example 6, [4-(1,3-Benzoxazol-2-yl)-2-nitrophenyl]acetonitrile], the melting point was 203 °C.

On to `N#CCc1ccc(-c2nc3ccccc3o2)cc1N` [Example 7, [2-Amino-4-(1,3-benzoxazol-2-yl)phenyl]acetonitrile], for which the melting point was 198 to 199 °C.
